Data: ChEMBL document CHEMBL1201861, “Genomics of Drug Sensitity in Cancer screening data, Wellcome Trust Sanger Institute”

Legend:
Assay in all cases: cells
COLO-792 = assay type: functional, cell-based, Homo sapiens
Description: SANGER: Inhibition of human COLO-792 cell growth in a cell viability assay.

COR-L105 = assay type: functional, cell-based, Homo sapiens;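 note: cell growth inhibition determined with a viability assay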
Description: SANGER: Inhibition of human COR-L105 cell growth in a cell viability assay.

Ca9-22 = assay type: functional, cell-based, Homo sapiens;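 note: growth inhibition of Ca9-22 cells, read out with a cell viability assay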
Description: SANGER: Inhibition of human Ca9-22 cell growth in a cell viability assay.

CaR-1 = assay type: functional, cell-based, Homo sapiens;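 note: growth inhibition of human CaR-1 cancer cells, read out with a cell viability assay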
Description: SANGER: Inhibition of human CaR-1 cell growth in a cell viability assay.

D-542MG = assay type: functional, cell-based, Homo sapiens; conditions: d-542mg
Description: SANGER: Inhibition of human D-542MG cell growth in a cell viability assay.

G-401 = assay type: functional, cell-based, Homo sapiens
Description: SANGER: Inhibition of human G-401 cell growth in a cell viability assay.

GMS-10 = assay type: functional, cell-based, Homo sapiens;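 note: growth inhibition of GMS-10 cells, read out as cell viability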
Description: SANGER: Inhibition of human GMS-10 cell growth in a cell viability assay.

H4 = assay type: functional, cell-based, Homo sapiens
Description: SANGER: Inhibition of human H4 cell growth in a cell viability assay.

HT1197 = assay type: functional, cell-based, Homo sapiens, HT-1197
Description: SANGER: Inhibition of human HT-1197 cell growth in a cell viability assay.

HT-1376 = assay type: functional, cell-based, Homo sapiens
Description: SANGER: Inhibition of human HT-1376 cell growth in a cell viability assay.

HuCCT-1 = assay type: functional, cell-based, Homo sapiens, HuCCT1;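 note: growth inhibition of HuCCT-1 cells, read out by a cell viability assay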
Description: SANGER: Inhibition of human HuCCT1 cell growth in a cell viability assay.

KYSE-150 cell line = assay type: functional, cell-based, Homo sapiens;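 note: growth inhibition of human KYSE-150 cells, read out with a cell viability assay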
Description: SANGER: Inhibition of human KYSE-150 cell growth in a cell viability assay.

KYSE-180 = assay type: functional, cell-based, Homo sapiens;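 note: growth inhibition of KYSE-180 cells, read out with a cell viability assay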
Description: SANGER: Inhibition of human KYSE-180 cell growth in a cell viability assay.

KYSE-510 = assay type: functional, cell-based, Homo sapiens;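 note: cell viability readout used to measure how strongly growth of the cell line is suppressed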
Description: SANGER: Inhibition of human KYSE-510 cell growth in a cell viability assay.

M059J = assay type: functional, cell-based, Homo sapiens;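 note: growth inhibition of M059J cells, read out with a cell viability assay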
Description: SANGER: Inhibition of human M059J cell growth in a cell viability assay.

MDA-MB-415 = assay type: functional, cell-based, Homo sapiens
MeWo = assay type: functional, cell-based, Homo sapiens;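 note: growth inhibition of MeWo cells, determined by a cell viability readout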
Description: SANGER: Inhibition of human Mewo cell growth in a cell viability assay.

NCI-H1563 = assay type: functional, cell-based, Homo sapiens;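 note: growth inhibition of human NCI-H1563 cells, read out with a cell viability assay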
Description: SANGER: Inhibition of human NCI-H1563 cell growth in a cell viability assay.

NCI-H2030 = assay type: functional, cell-based, Homo sapiens;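 note: growth inhibition of human NCI-H2030 cells, read out by a cell viability assay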
Description: SANGER: Inhibition of human NCI-H2030 cell growth in a cell viability assay.

NCI-H2405 = assay type: functional, cell-based, Homo sapiens;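 note: growth inhibition of the human cell line, read out with a cell viability assay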
Description: SANGER: Inhibition of human NCI-H2405 cell growth in a cell viability assay.

NCI-H2452 = assay type: functional, cell-based, Homo sapiens;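 note: growth inhibition of NCI-H2452 cells, read out with a cell viability assay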
Description: SANGER: Inhibition of human NCI-H2452 cell growth in a cell viability assay.

NCI-H358 = assay type: functional, cell-based, Homo sapiens;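 note: growth inhibition of NCI-H358 human cells, read out with a cell viability assay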
Description: SANGER: Inhibition of human NCI-H358 cell growth in a cell viability assay.

NCI-H441 = assay type: functional, cell-based, Homo sapiens;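 note: growth inhibition of NCI-H441 cells, read out with a cell viability assay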
Description: SANGER: Inhibition of human NCI-H441 cell growth in a cell viability assay.

NCI-H727 = assay type: functional, cell-based, Homo sapiens;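 note: growth inhibition of human NCI-H727 cells, read out with a cell viability assay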
Description: SANGER: Inhibition of human NCI-H727 cell growth in a cell viability assay.

OE33 = assay type: functional, cell-based, Homo sapiens;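 note: growth inhibition of human OE33 cells, measured by a cell viability assay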
Description: SANGER: Inhibition of human OE33 cell growth in a cell viability assay.

RCM-1 = assay type: functional, cell-based, Homo sapiens;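 note: growth inhibition of the RCM-1 line, determined with a cell viability readout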
Description: SANGER: Inhibition of human RCM-1 cell growth in a cell viability assay.

RD = assay type: functional, cell-based, Homo sapiens
Description: SANGER: Inhibition of human RD cell growth in a cell viability assay.

RT-112 = assay type: functional, cell-based, Homo sapiens
Description: SANGER: Inhibition of human RT-112 cell growth in a cell viability assay.

SCC-4 = assay type: functional, cell-based, Homo sapiens;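 note: growth inhibition of human SCC-4 cells, read out as cell viability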
Description: SANGER: Inhibition of human SCC-4 cell growth in a cell viability assay.

SK-MEL-30 = assay type: functional, cell-based, Homo sapiens;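 note: growth inhibition of SK-MEL-30 cells, determined with a cell viability assay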
Description: SANGER: Inhibition of human SK-MEL-30 cell growth in a cell viability assay.

SW837 = assay type: functional, cell-based, Homo sapiens;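 note: growth inhibition of SW837 cells, determined with a cell viability assay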
Description: SANGER: Inhibition of human SW837 cell growth in a cell viability assay.

T84 = assay type: functional, cell-based, Homo sapiens;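 note: growth inhibition measured with a cell viability readout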
Description: SANGER: Inhibition of human T84 cell growth in a cell viability assay.

AGS = assay type: functional, cell-based, Homo sapiens;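 note: growth inhibition of AGS cells, determined with a cell viability assay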
Description: SANGER: Inhibition of human AGS cell growth in a cell viability assay.

U-118-MG = assay type: functional, cell-based, Homo sapiens
Description: SANGER: Inhibition of human U-118-MG cell growth in a cell viability assay.

UMUC3 = assay type: functional, cell-based, Homo sapiens;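 note: growth inhibition of human UM-UC-3 cells, read out with a cell viability assay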
Description: SANGER: Inhibition of human UM-UC-3 cell growth in a cell viability assay.

ZR-75-30 = assay type: functional, cell-based, Homo sapiens;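 note: growth inhibition of ZR-75-30 cells, measured with a cell viability readout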
Description: SANGER: Inhibition of human ZR-75-30 cell growth in a cell viability assay.

CISPLATIN
IC50 (COLO-792; colo-792): 5.73 µM
IC50 (COR-L105; cor-l105): 22.7 µM
IC50 (Ca9-22; ca9-22): 10.4 µM
IC50 (CaR-1; car-1): 755 µM
IC50 (D-542MG): 3.26 µM
IC50 (G-401; g-401): 7.25 µM
IC50 (GMS-10; gms-10): 85.2 µM
IC50 (H4; h4): 4.71 µM
IC50 (HT1197; ht-1197): 13.3 µM
IC50 (HT-1376; ht-1376): 98.9 µM
IC50 (HuCCT-1; hucct1): 70.1 µM
IC50 (KYSE-150 cell line; kyse-150): 411 µM
IC50 (KYSE-180; kyse-180): 5.82 µM
IC50 (KYSE-510; kyse-510): 3.38 µM
IC50 (M059J; m059j): 10.4 µM
IC50 (MDA-MB-415; mda-mb-415): 48.4 µM
IC50 (MeWo; mewo): 16.7 µM
IC50 (NCI-H1563; nci-h1563): 146 µM
IC50 (NCI-H2030; nci-h2030): 11.9 µM
IC50 (NCI-H2405; nci-h2405): 22.7 µM
IC50 (NCI-H2452; nci-h2452): 213 µM
IC50 (NCI-H358; nci-h358): 195 µM
IC50 (NCI-H441; nci-h441): 199 µM
IC50 (NCI-H727; nci-h727): 691 µM
IC50 (OE33; oe33): 22.5 µM
IC50 (RCM-1; rcm-1): 123 µM
IC50 (RD; rd): 14.6 µM
IC50 (RT-112; rt-112): 14.3 µM
IC50 (SCC-4; scc-4): 31 µM
IC50 (SK-MEL-30; sk-mel-30): 480 µM
IC50 (SW837; sw837): 190 µM
IC50 (T84; t84): 356 µM
IC50 (AGS; ags): 24.6 µM
IC50 (U-118-MG; u-118-mg): 16.8 µM
IC50 (UMUC3; umuc3): 3.93 µM
IC50 (ZR-75-30; zr-75-30): 72.2 µM

CN(C)C(=N)NC(=N)N [METFORMIN]
IC50 (COLO-792; Homo sapiens, COLO-792): 7510 µM
IC50 (COR-L105; Homo sapiens, COR-L105): > 20000 µM
IC50 (Ca9-22; Homo sapiens, Ca9-22): 7950 µM
IC50 (CaR-1; Homo sapiens, CaR-1): > 20000 µM
IC50 (G-401; Homo sapiens, G-401): 1590 µM
IC50 (GMS-10; Homo sapiens, GMS-10): > 20000 µM
IC50 (H4; Homo sapiens, H4): > 20000 µM
IC50 (HT1197; Homo sapiens, HT1197): > 20000 µM
IC50 (HT-1376; Homo sapiens, HT-1376): 10400 µM
IC50 (HuCCT-1; Homo sapiens, HuCCT-1): > 20000 µM
IC50 (KYSE-180; Homo sapiens, KYSE-180): 9060 µM
IC50 (KYSE-510; Homo sapiens, KYSE-510): > 20000 µM
IC50 (M059J; Homo sapiens, M059J): > 20000 µM
IC50 (MDA-MB-415; Homo sapiens, MDA-MB-415): 16800 µM
IC50 (MeWo; Homo sapiens, MeWo): > 20000 µM
IC50 (NCI-H1563; Homo sapiens, NCI-H1563): 8610 µM
IC50 (NCI-H441; Homo sapiens, NCI-H441): > 20000 µM
IC50 (NCI-H727; Homo sapiens, NCI-H727): > 20000 µM
IC50 (RCM-1; Homo sapiens, RCM-1): > 20000 µM
IC50 (RD; Homo sapiens, RD): > 20000 µM
IC50 (RT-112; Homo sapiens, RT-112): > 20000 µM
IC50 (SCC-4; Homo sapiens, SCC-4): > 20000 µM
IC50 (SK-MEL-30; Homo sapiens, SK-MEL-30): > 20000 µM
IC50 (SW837; Homo sapiens, SW837): > 20000 µM
IC50 (AGS; Homo sapiens, AGS): 15700 µM
IC50 (UMUC3; Homo sapiens, UMUC3): 12800 µM
IC50 (ZR-75-30; Homo sapiens, ZR-75-30): 14900 µM

CCN(CC)CCCCNc1ncc2cc(-c3cc(OC)cc(OC)c3)c(NC(=O)NC(C)(C)C)nc2n1 [PD-173074]
IC50 (COLO-792; Homo sapiens, COLO-792): > 2 µM
IC50 (COR-L105; Homo sapiens, COR-L105): > 2 µM
IC50 (Ca9-22; Homo sapiens, Ca9-22): > 2 µM
IC50 (CaR-1; Homo sapiens, CaR-1): > 2 µM
IC50 (G-401; Homo sapiens, G-401): > 2 µM
IC50 (GMS-10; Homo sapiens, GMS-10): > 2 µM
IC50 (H4; Homo sapiens, H4): > 2 µM
IC50 (HT1197; Homo sapiens, HT1197): > 2 µM
IC50 (HT-1376; Homo sapiens, HT-1376): > 2 µM
IC50 (HuCCT-1; Homo sapiens, HuCCT-1): > 2 µM
IC50 (KYSE-150 cell line; Homo sapiens, KYSE-150): > 2 µM
IC50 (KYSE-180; Homo sapiens, KYSE-180): > 2 µM
IC50 (KYSE-510; Homo sapiens, KYSE-510): > 2 µM
IC50 (M059J; Homo sapiens, M059J): > 2 µM
IC50 (MDA-MB-415; Homo sapiens, MDA-MB-415): > 2 µM
IC50 (MeWo; Homo sapiens, MeWo): > 2 µM
IC50 (NCI-H1563; Homo sapiens, NCI-H1563): > 2 µM
IC50 (NCI-H2030; Homo sapiens, NCI-H2030): > 2 µM
IC50 (NCI-H2405; Homo sapiens, NCI-H2405): > 2 µM
IC50 (NCI-H2452; Homo sapiens, NCI-H2452): > 2 µM
IC50 (NCI-H358; Homo sapiens, NCI-H358): > 2 µM
IC50 (NCI-H441; Homo sapiens, NCI-H441): > 2 µM
IC50 (NCI-H727; Homo sapiens, NCI-H727): > 2 µM
IC50 (OE33; Homo sapiens, OE33): > 2 µM
IC50 (RCM-1; Homo sapiens, RCM-1): > 2 µM
IC50 (RD; Homo sapiens, RD): > 2 µM
IC50 (RT-112; Homo sapiens, RT-112): 0.547 µM
IC50 (SCC-4; Homo sapiens, SCC-4): > 2 µM
IC50 (SK-MEL-30; Homo sapiens, SK-MEL-30): > 2 µM
IC50 (SW837; Homo sapiens, SW837): > 2 µM
IC50 (T84; Homo sapiens, T84): > 2 µM
IC50 (AGS; Homo sapiens, AGS): > 2 µM
IC50 (U-118-MG; Homo sapiens, U-118-MG): > 2 µM
IC50 (UMUC3; Homo sapiens, UMUC3): > 2 µM
IC50 (ZR-75-30; Homo sapiens, ZR-75-30): > 2 µM
